In patent publication US8426462B2, “Ferrocene derivatives with anticancer activity” (Centre National de la Recherche Scientifique (CNRS), priority 2008, dated 2013):

Key:
[1] = system: MDA-MB-231 cells (non-hormone-dependent breast cancer cells); conditions: read-out: Antiproliferative effect (IC50)
Description: (§1) The antiproliferative effects of compounds of the invention were tested on MDA-MB-231 cells, which are non-hormone-dependent breast cancer cells, on PC-3 cells, which are non-hormone-dependent prostate cancer cells and on MCF-7 cells, which are hormone-dependent breast cancer cells.
(§2) The experimental method used for this test is described in Hillard E. A. et al. Chem. Med. Chem. 2006, 1, 551-559.

[2] = system: MCF-7 cells (hormone-dependent breast cancer cells containing ERα); test: Proliferative/antiproliferative effect on MCF-7 cells; assay type: cell-based; conditions: for proliferative effect based on the control: MCF-7, without phenol red, 10^−8M; for IC50: MCF-7, approximate, estrogen effect plus cytotoxic activity, read-out: IC50 on MCF-7 line (converted)
Description: The purely cytotoxic effect appears at higher concentrations where the resultant of the two components (estrogen effect plus cytotoxic activity) is therefore evidenced. It is thus difficult to achieve very accurate IC50 values for the MCF-7 line.

[3] = system: PC-3 cells (non-hormone-dependent prostate cancer cells); conditions: read-out: Antiproliferative effect (IC50)
Description: as §1, §2

Compound | IC50 [1] [nM] | proliferative effect based on the control [2] [%] | IC50 [2] [nM] | IC50 [3] [nM]
1,1′-[1-[1,1-bis(4-hydroxyphenyl)methylidene]-2-methyltrimethylene]ferrocene [Compound 11] | 630 |  |  | 
1,1′-[1-[1,1-bis(4-hydroxyphenyl)methylidene]trimethylene]ferrocene [Compound 4] | 80 | 162 | ~4000 | 940
1,1′-[1-[(4-hydroxyphenyl)(phenyl)-methylidene]trimethylene]ferrocene [Compound 12] | 470 |  |  | 
1,1′-[2-[1,1-bis(4-hydroxyphenyl)methylidene]trimethylene]ferrocene [Compound 5] | 960 |  | ~1000 | 1080
1,2-[1-[1,1-bis(4-hydroxyphenyl)methylidene]tetramethylene]-ferrocene [Compound 9] | 500 |  |  | 
1,2-[1-[1,1-bis(4-hydroxyphenyl)methylidene]trimethylene]ferrocene [Compound 8] | 2700 |  |  | 
C[C@]12CC[C@@H]3c4ccc(O)cc4CC[C@H]3[C@@H]1CC[C@@H]2O [estradiol, reference compound] |  | 264 |  | 
(R)-1,1′-[1-[1,1-bis(4-hydroxyphenyl)methylidene]-3-methyltrimethylene]ferrocene [Compound 7] | 780 |  |  | 
(S)-1,1′-[1-[1,1-bis(4-hydroxyphenyl)methylidene]-3-methyltrimethylene]ferrocene [Compound 6] | 2700 |  |  | 
